Test results taken from US6737383B1, “Herbicidal oxadiazolidines” (priority 1999, dated 2004).

Columns and labels:
purple nutsedge = test: Test B pre/postemergence purple nutsedge; format: in vivo, Cyperus rotundus; conditions: for Plant response rating, Nutsedge: scale of 0 to 10 where 0 is no effect and 10 is complete control
Outline: (§1)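 Response is a visual 0-to-10 score relative to untreated plants, where 0 means no effect and 10 means complete control, taken twelve to sixteen days after application. Treatments went onto soil at planting and onto foliage of 1- to 4-leaf plants, using a surfactant-containing non-phytotoxic solvent.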

surinam grass = test: Test B pre/postemergence surinam grass; format: in vivo, Brachiaria decumbens
Outline: as §1

corn = test: Test B pre/postemergence corn; format: in vivo, Zea mays
Outline: as §1

smallflower flatsedge = test: Test B flood test smallflower flatsedge; format: in vivo, Cyperus difformis
Outline: (§2)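 Plants were grown to the 2-leaf stage before treatment with test chemical, then held in a greenhouse for twelve to sixteen days. Injury was visually rated against untreated controls on a 0–10 scale, where 0 is no effect and 10 is complete control.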

velvetleaf = test: Test B pre/postemergence velvetleaf; format: in vivo, Abutilon theophrasti; conditions: for Plant response rating, Velvetleaf: scale of 0 to 10 where 0 is no effect and 10 is complete control
Outline: as §1

bamyardgrass = test: Test B flood test barnyardgrass; format: in vivo, Echinochloa crus-galli
Outline: as §2

rape = test: Test B pre/postemergence rape; format: in vivo, Brassica napus; conditions: for Plant response rating, Rape: scale of 0 to 10 where 0 is no effect and 10 is complete control
Outline: as §1

cocklebur = test: Test B pre/postemergence cocklebur; format: in vivo, Xanthium strumarium
Outline: as §1

wild oat = test: Test B pre/postemergence wild oat; format: in vivo, Avena fatua; conditions: for Plant response rating, Wild oats: scale of 0 to 10 where 0 is no effect and 10 is complete control
Outline: as §1

soybean = test: Test B pre/postemergence soybean; format: in vivo, Glycine max; conditions: for Plant response rating, Soybean: scale of 0 to 10 where 0 is no effect and 10 is complete control
Outline: as §1

wheat = test: Test B pre/postemergence wheat; format: in vivo, Triticum aestivum; conditions: for Plant response rating, Wheat: scale of 0 to 10 where 0 is no effect and 10 is complete control
Outline: as §1

sugar beet = test: Test B pre/postemergence sugar beet; format: in vivo, Beta vulgaris; conditions: for Plant response rating, Sugarbeets: scale of 0 to 10 where 0 is no effect and 10 is complete control
Outline: as §1

giant foxtail = test: Test B pre/postemergence giant foxtail; format: in vivo, Setaria faberii
Outline: as §1

crabgrass = test: Test B pre/postemergence crabgrass; format: in vivo, Digitaria sanguinalis
Outline: as §1

pigweed = test: Test B pre/postemergence pigweed; format: in vivo, Amaranthus retroflexus; conditions: for Plant response rating, Redroot pigweed: scale of 0 to 10 where 0 is no effect and 10 is complete control
Outline: as §1

duck salad = test: Test B flood test duck salad; format: in vivo, Heteranthera limosa
Outline: as §2

[1] = Postemergence, Rate 250 g/ha, scale 0 to 10
[2] = Preemergence, Rate 250 g/ha, scale 0 to 10, 0 is no effect, 10 is complete control
[3] = Preemergence, Rate 500 g/ha, scale 0 to 10, 0 is no effect, 10 is complete control
[4] = Rate 62 g/ha, Postemergence, scale 0 to 10 (0 no effect, 10 complete control)
[5] = Rate 125 g/ha, Postemergence, scale 0 to 10, 0 is no effect, 10 is complete control
[6] = Postemergence, Rate 500 g/ha, scale of 0 to 10 where 0 is no effect and 10 is complete control
[7] = Preemergence, Rate 62 g/ha, scale of 0 to 10 where 0 is no effect and 10 is complete control
[8] = Preemergence, Rate 125 g/ha, scale of 0 to 10 where 0 is no effect and 10 is complete control
[9] = Rate 62 g/ha, flood test species, Pre-emergence, visual evaluation after twelve to sixteen days
[10] = Rate 125 g/ha, under heading Pre-emergence, flood test species, visual evaluation after twelve to sixteen days
[11] = Rate 250 g/ha, Pre-emergence (flood test species), scale 0 to 10, 0 is no effect, 10 is complete control
[12] = Rate 500 g/ha, Pre-emergence, flood test species, scale 0 to 10 (0 no effect, 10 complete control)

COC(CCl)n1c(=O)on(C(=O)N(c2ccc(Cl)cc2)C(C)C)c1=O (stereo not drawn) [Compound 458]
8: Sugarbeets plant response rating (sugar beet; [3]) | Crabgrass plant response rating (crabgrass; [1]) | Crabgrass plant response rating (crabgrass; [5]) | Redroot pigweed plant response rating (pigweed; [3])
1: Soybean plant response rating (soybean; [5])
2: Corn plant response rating (corn; [1]) | Corn plant response rating (corn; [6]) | Velvetleaf plant response rating (velvetleaf; [2]) | Cocklebur plant response rating (cocklebur; [6]) | Wild oats plant response rating (wild oat; [1]) | Plant response rating, Wild oats (wild oat; Preemergence, Rate 125 g/ha) | Soybean plant response rating (soybean; [1]) | Soybean plant response rating (soybean; [3]) | Wheat plant response rating (wheat; [1]) | Wheat plant response rating (wheat; [3]) | Sugarbeets plant response rating (sugar beet; [2]) | Crabgrass plant response rating (crabgrass; [4])
6: Velvetleaf plant response rating (velvetleaf; [3]) | Plant response rating, Crabgrass (crabgrass; [7]) | Plant response rating, Crabgrass (crabgrass; [8]) | Redroot pigweed plant response rating (pigweed; [2])
4: Plant response rating, B. signalgrass (surinam grass; [7]) | Plant response rating, B. signalgrass (surinam grass; [8]) | B. signalgrass plant response rating (surinam grass; [2]) | B. signalgrass plant response rating (surinam grass; [3]) | Rape plant response rating (rape; [3])
9: Giant foxtail plant response rating (giant foxtail; [1]) | Giant foxtail plant response rating (giant foxtail; [6]) | Plant response rating, Giant foxtail (giant foxtail; [7]) | Plant response rating, Giant foxtail (giant foxtail; [8]) | Giant foxtail plant response rating (giant foxtail; [5]) | Crabgrass plant response rating (crabgrass; [6]) | Crabgrass plant response rating (crabgrass; [2])
7: Giant foxtail plant response rating (giant foxtail; [4])
0: Nutsedge plant response rating (purple nutsedge; [1]) | Plant response rating, Nutsedge (purple nutsedge; Preemergence, Rate 62 g/ha) | Plant response rating, Nutsedge (purple nutsedge; Preemergence, Rate 125 g/ha) | Nutsedge plant response rating (purple nutsedge; [2]) | Nutsedge plant response rating (purple nutsedge; [3]) | Nutsedge plant response rating (purple nutsedge; [4]) | Nutsedge plant response rating (purple nutsedge; [5]) | B. signalgrass plant response rating (surinam grass; Postemergence, Rate 250 g/ha, scale 0 to 10, 0 no effect, 10 complete control) | B. signalgrass plant response rating (surinam grass; [4]) | B. signalgrass plant response rating (surinam grass; [5]) | Plant response rating, Corn (corn; [7]) | Plant response rating, Corn (corn; [8]) | Corn plant response rating (corn; [2]) | Corn plant response rating (corn; [4]) | Corn plant response rating (corn; [5]) | Plant response rating, S. Flatsedge (0 to 10 scale, 0 is no effect, 10 is complete control) (smallflower flatsedge; [9]) | S. Flatsedge plant response rating (0 to 10 scale, 0 is no effect, 10 is complete control) (smallflower flatsedge; [10]) | S. Flatsedge plant response rating (smallflower flatsedge; [11]) | S. Flatsedge plant response rating (smallflower flatsedge; [12]) | Velvetleaf plant response rating (velvetleaf; [1]) | Plant response rating, Velvetleaf (velvetleaf; Preemergence, Rate 62 g/ha) | Plant response rating, Velvetleaf (velvetleaf; Preemergence, Rate 125 g/ha) | Velvetleaf plant response rating (velvetleaf; [4]) | Velvetleaf plant response rating (velvetleaf; [5]) | Plant response rating, Barnyardgrass (0 to 10 scale, 0 is no effect, 10 is complete control) (bamyardgrass; [9]) | Barnyardgrass plant response rating (0 to 10 scale, 0 is no effect, 10 is complete control) (bamyardgrass; [10]) | Barnyardgrass plant response rating (bamyardgrass; [11]) | Barnyardgrass plant response rating (bamyardgrass; [12]) | Rape plant response rating (rape; [1]) | Plant response rating, Rape (rape; Preemergence, Rate 62 g/ha) | Plant response rating, Rape (rape; Preemergence, Rate 125 g/ha) | Rape plant response rating (rape; [4]) | Rape plant response rating (rape; [5]) | Cocklebur plant response rating (cocklebur; [1]) | Plant response rating, Cocklebur (cocklebur; [7]) | Plant response rating, Cocklebur (cocklebur; [8]) | Cocklebur plant response rating (cocklebur; [2]) | Cocklebur plant response rating (cocklebur; [3]) | Cocklebur plant response rating (cocklebur; [4]) | Cocklebur plant response rating (cocklebur; [5]) | Plant response rating, Wild oats (wild oat; Preemergence, Rate 62 g/ha) | Wild oats plant response rating (wild oat; [4]) | Wild oats plant response rating (wild oat; [5]) | Plant response rating, Soybean (soybean; Preemergence, Rate 62 g/ha) | Plant response rating, Soybean (soybean; Preemergence, Rate 125 g/ha) | Soybean plant response rating (soybean; [2]) | Soybean plant response rating (soybean; [4]) | Plant response rating, Wheat (wheat; Preemergence, Rate 62 g/ha) | Plant response rating, Wheat (wheat; Preemergence, Rate 125 g/ha) | Wheat plant response rating (wheat; [2]) | Wheat plant response rating (wheat; [4]) | Wheat plant response rating (wheat; [5]) | Sugarbeets plant response rating (sugar beet; [1]) | Plant response rating, Sugarbeets (sugar beet; Preemergence, Rate 62 g/ha) | Plant response rating, Sugarbeets (sugar beet; Preemergence, Rate 125 g/ha) | Sugarbeets plant response rating (sugar beet; [4]) | Sugarbeets plant response rating (sugar beet; [5]) | Redroot pigweed plant response rating (pigweed; [1]) | Plant response rating, Redroot pigweed (pigweed; Preemergence, Rate 62 g/ha) | Redroot pigweed plant response rating (pigweed; [4]) | Redroot pigweed plant response rating (pigweed; [5]) | Plant response rating, Ducksalad (0 to 10 scale, 0 is no effect, 10 is complete control) (duck salad; [9]) | Ducksalad plant response rating (0 to 10 scale, 0 is no effect, 10 is complete control) (duck salad; [10]) | Ducksalad plant response rating (duck salad; [11]) | Ducksalad plant response rating (duck salad; [12])
10: Wild oats plant response rating (wild oat; [3]) | Giant foxtail plant response rating (giant foxtail; [2]) | Giant foxtail plant response rating (giant foxtail; [3]) | Crabgrass plant response rating (crabgrass; [3])
3: B. signalgrass plant response rating (surinam grass; [6]) | Corn plant response rating (corn; [3]) | Rape plant response rating (rape; [2]) | Wild oats plant response rating (wild oat; [2]) | Plant response rating, Redroot pigweed (pigweed; Preemergence, Rate 125 g/ha)
